The text below walks through data of patent publication US9023851B2 (Merck Patent GmbH, priority 2010, dated 2015).

Data set [1] has as its system 3LL lung carcinoma. The following applies: s.c. 3LL lung carcinoma in mice; cited from earlier work.
The target of data set [2] is T1, Syk (Homo sapiens, UniProt P43405).
T1 construct: purchased BPS Bioscience, CA, USA
Briefly: Syk enzyme assay (flash plate / Caliper mobility shift). Type of data set: biochemical. In outline: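 Flashplate format used 2.5 nM SYK, 400 nM biotinylated peptide and 10 µM ATP with 33P tracer, pH 7.5, 1 h at 30 °C, read by radioactivity. Caliper format ran 90 min at 25 °C in HEPES pH 7.5, reading percent peptide conversion by mobility shift. IC50s came from dose-response curves.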

Data set [3] has as its target T2, ZAP-70 (Homo sapiens, UniProt P43403).
T2 construct: purchased BPS Bioscience, CA, USA
T2 sequence (P43403 1-619): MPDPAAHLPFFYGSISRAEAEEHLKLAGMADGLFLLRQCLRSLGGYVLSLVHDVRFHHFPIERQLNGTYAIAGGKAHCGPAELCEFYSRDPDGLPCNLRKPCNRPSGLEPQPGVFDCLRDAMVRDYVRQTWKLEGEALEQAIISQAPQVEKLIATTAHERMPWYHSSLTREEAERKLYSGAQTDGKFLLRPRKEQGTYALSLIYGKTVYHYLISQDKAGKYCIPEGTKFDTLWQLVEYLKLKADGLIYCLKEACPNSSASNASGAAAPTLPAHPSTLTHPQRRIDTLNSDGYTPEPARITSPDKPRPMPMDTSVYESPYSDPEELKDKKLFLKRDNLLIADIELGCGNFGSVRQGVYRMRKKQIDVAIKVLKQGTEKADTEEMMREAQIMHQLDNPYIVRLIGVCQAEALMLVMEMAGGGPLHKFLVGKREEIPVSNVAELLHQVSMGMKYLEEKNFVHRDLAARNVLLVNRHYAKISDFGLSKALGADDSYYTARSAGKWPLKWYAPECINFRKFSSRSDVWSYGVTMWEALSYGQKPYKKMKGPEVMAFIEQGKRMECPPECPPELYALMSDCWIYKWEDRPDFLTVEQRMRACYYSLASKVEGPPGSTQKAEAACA
Description: Zap70 enzymatic assay (Caliper LifeSciences technology). The class given is biochemical. In outline:
(§1)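 Off-chip mobility-shift assay quantifying conversion of a fluorescent peptide substrate to phosphorylated product. Reactions in 100 mM HEPES pH 7.5, 1 mM DTT, 1 mM MgCl2, 0.015% Brij-35, 90 min at 25 C, stopped with EDTA. IC50 from sigmoidal fit of percent conversion versus inhibitor concentration.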

In data set [4] the target is T3, BTK (Homo sapiens, UniProt Q06187).
T3 construct: purchased Carna Bioscience, Kobe, Japan
T3 sequence (Q06187 whole entry): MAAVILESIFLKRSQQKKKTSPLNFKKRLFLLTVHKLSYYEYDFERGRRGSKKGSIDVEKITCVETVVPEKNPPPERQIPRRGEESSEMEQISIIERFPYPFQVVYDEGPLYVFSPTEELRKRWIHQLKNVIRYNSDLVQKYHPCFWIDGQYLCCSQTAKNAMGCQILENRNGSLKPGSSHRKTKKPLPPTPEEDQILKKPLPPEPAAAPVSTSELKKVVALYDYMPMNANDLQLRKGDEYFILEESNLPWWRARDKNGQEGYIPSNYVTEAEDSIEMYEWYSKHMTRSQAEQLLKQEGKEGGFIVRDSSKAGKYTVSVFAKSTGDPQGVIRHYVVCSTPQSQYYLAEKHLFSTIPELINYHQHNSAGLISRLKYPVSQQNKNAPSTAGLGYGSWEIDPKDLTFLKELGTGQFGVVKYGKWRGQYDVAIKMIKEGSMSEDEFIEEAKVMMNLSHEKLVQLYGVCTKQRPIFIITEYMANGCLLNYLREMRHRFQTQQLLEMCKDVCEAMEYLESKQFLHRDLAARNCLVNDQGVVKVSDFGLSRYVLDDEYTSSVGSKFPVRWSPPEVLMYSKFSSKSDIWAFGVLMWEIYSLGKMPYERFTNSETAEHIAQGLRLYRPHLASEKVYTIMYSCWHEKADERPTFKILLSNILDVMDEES
Briefly: BTK enzymatic assay (Caliper LifeSciences technology). The class given is biochemical. The procedure:
Enzymatic Assays Using the Caliper LifeSciences Technology
The assays described here are performed on the Caliper Life Sciences LC3000 system This technology provides data on enzyme activity via measurement of the relative amounts of phosphorylated or unphosphorylated fluorescently labelled substrate peptide at the end of an enzymatic reaction. These different states of peptide are resolved by applying a potential difference across the sample. The presence of the charged phosphate group on the product (as opposed to the substrate) causes a different peptide mobility between the two peptides. This is visualized by excitation of the fluorescent label on the substrate and product peptides and represented as peaks within the analysis software.
In order to measure inhibitor activity of kinase inhibitors on this technology, a TTP Mosquito liquid handling instrument is used to place 0.25 ul of the appropriate concentration of inhibitor in 100% DMSO (for a dose response curve calculation) into each well of a 384-well plate. To this reaction components are added to a final volume of 25 ul. The table below indicates the sequences and concentrations for the assays described in this report. Standard components are 1 mM DTT (Sigma, D0632), 1 mM MgCl2 (Sigma, M1028), 100 mM HEPES pH 7.5 (Calbiochem, 391338), 0.015% Brij-35 (Sigma, B4184).
The reaction is incubated for 90 min at 25 C, and then stopped by the addition of 70 ul of Stop buffer (100 mM HEPES pH 7.5, 0.015% Brij-35, 10 mM EDTA (Sigma, E7889)).
The plate is read on a Caliper LC 3000 in an Off-Chip mobility shift assay format, on a 12-sipper chip. Unphosphorylated substrate and phosphorylated product peptide resolve as separate peaks allowing direct measurement of percentage of conversion of substrate to product. The percent conversion can be plotted against concentration of inhibitor to produce a sigmoidal dose response curve, from which an IC50 can be calculated using GeneData Condoseo or a similar product. Cellular activity assays

For data set [5], the system named is Ramos cells. Description: BCR crosslinking-induced BLNK phosphorylation (BLNK cell assay). Type of data set: cell-based. As to conditions: Homo sapiens. As for the experimental part:
1. BCR Crosslinking-Induced BLNK Phosphorylation
Ramos cells incubated overnight in IMDM medium containing 5% FCS were resuspended in IMDM medium without serum (3.3×10^6 cells/ml). 90 μl of cell suspension (300′000 cells) were incubated with 10 μl of SYK inhibitors (in 3% DMSO) for 20 minutes at 37° C., in 96 well plates. After preincubation with inhibitors, cells were activated with 10 μg/ml of goat antihuman anti-IgM for 10 minutes at 37° C. After stimulation, cells were fixed by addition of 80 μl of 4% paraformaldehyde followed by a 10 minutes incubation at RT and […] in 0.1% Triton X-100 in PBS. BLNK phosphorylation was detected by flow cytometry after staining of the cells with anti-BLNK-pY84-PE antibodies from BD pharmingen, for 45 minutes at RT. […]

Data set [6] concerns the target T4, KDR (Homo sapiens, UniProt P35968).
T4 construct: purchased BPS Bioscience, CA, USA
Description: KDR enzymatic assay (Caliper LifeSciences technology). Type of data set: biochemical. A digest of the protocol: as §1

Data set [7] addresses T5, Src (Homo sapiens, UniProt P12931).
T5 construct: purchased Carna Bioscience, Kobe, Japan
Briefly: cSrc enzymatic assay (Caliper LifeSciences technology). Type of data set: biochemical. In outline:
as §1

The conditions of data set [8]: murine model of RA, cited from earlier work.
The conditions of data set [9]: RA Phase II studies in humans; cited from earlier work.

pIC50: −log10 of the molar value.

T5 sequence (P12931 whole entry): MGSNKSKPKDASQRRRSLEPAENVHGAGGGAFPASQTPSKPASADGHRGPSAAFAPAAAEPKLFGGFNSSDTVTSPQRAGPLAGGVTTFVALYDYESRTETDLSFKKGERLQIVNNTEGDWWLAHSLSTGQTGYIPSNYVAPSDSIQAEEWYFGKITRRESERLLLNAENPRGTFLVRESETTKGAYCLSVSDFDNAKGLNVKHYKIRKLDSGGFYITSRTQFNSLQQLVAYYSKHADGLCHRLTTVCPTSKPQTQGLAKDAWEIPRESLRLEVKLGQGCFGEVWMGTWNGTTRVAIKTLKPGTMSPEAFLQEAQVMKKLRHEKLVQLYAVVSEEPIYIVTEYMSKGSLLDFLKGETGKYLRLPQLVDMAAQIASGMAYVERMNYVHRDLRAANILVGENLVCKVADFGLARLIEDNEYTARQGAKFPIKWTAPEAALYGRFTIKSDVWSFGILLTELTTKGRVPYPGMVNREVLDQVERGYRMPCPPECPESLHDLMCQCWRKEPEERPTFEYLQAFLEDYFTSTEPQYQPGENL
T4 sequence (P35968 20-1356): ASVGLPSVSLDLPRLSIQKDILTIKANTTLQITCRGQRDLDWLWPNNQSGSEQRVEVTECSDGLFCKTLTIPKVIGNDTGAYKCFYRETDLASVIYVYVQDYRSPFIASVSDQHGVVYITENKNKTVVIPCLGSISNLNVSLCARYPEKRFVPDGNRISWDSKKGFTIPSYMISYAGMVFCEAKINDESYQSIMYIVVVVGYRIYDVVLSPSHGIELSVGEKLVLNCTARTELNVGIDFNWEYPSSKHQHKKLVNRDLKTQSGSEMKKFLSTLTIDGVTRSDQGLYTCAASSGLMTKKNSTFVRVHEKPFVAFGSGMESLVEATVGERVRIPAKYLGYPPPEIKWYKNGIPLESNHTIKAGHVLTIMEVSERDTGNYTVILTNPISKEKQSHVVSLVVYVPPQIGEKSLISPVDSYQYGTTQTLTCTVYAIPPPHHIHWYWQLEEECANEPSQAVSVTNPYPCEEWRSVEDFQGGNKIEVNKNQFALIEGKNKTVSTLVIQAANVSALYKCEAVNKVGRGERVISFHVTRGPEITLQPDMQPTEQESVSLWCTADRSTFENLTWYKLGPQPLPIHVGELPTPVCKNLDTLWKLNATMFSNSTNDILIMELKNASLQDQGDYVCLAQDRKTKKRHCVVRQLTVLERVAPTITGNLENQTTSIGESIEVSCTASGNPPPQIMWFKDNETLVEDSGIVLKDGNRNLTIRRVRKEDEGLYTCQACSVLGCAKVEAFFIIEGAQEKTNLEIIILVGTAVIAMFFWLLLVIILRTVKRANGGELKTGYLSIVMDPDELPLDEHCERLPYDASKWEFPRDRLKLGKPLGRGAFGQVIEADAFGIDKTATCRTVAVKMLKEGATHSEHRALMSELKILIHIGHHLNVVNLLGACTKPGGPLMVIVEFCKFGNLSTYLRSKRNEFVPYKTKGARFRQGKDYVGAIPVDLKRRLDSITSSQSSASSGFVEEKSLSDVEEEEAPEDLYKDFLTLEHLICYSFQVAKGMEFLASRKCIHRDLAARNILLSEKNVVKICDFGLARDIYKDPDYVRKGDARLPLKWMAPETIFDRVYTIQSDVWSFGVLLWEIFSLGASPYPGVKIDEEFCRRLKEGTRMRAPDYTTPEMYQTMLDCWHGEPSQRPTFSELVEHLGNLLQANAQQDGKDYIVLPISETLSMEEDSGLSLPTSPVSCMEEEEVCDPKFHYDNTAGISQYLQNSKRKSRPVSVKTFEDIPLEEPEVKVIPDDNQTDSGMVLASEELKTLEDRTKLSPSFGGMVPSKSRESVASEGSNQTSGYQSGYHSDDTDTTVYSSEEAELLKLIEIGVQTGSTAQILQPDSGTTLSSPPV

For the compound `N=C(NO)NCC[C@H](N)C(=O)O` [N-hydroxy-nor-L-Arg], the tumor growth entry in [1] is reported as “blocks growth of s.c. 3LL lung carcinoma in mice”.
A word on the pIC50: it is the IC50 on a negative log10 scale, so that one unit is a factor of ten. In the case of `c1ccc(Cn2ncc3ccc(Nc4nc5c(-c6nccs6)nccn5n4)cc32)cc1` [Example C24, (1-Benzyl-1H-indazol-6-yl)-(8-thiazol-2-yl-[1,2,4]triazolo[1,5-a]pyrazin-2-yl)-amine], the negative logarithm of the IC50 (pIC50) was 5.52 to 6.52 in data set [2], 4.30 to 5.52 in data set [3] and 4.30 to 5.52 in [4].
Take `COc1cc(Nc2nc3c(-c4cccnc4)nccn3n2)cc(OC)c1` [Example C19, (3,5-Dimethoxy-phenyl)-(8-pyridin-3-yl-[1,2,4]triazolo[1,5-a]pyrazin-2-yl)-amine]: the pIC50 is 4.30 to 5.52 in data set [5]; greater than 6.52 in data set [2]; 4.30 to 5.52 in [3]; 4.30 to 5.52 in data set [4]; 5.52 to 6.52 in data set [6]; 5.52 to 6.52 in data set [7].
Consider `COc1cc(Nc2nc3c(-c4ccccc4)nccn3n2)cc(OC)c1` [Example C8, (3,5-Dimethoxy-phenyl)-(8-phenyl-[1,2,4]triazolo[1,5-a]pyrazin-2-yl)-amine], for which the pIC50 in data set [2] was greater than 6.52; in [4], 4.30 to 5.52; in data set [6], greater than 6.52.
For `O=C1Nc2cc(Nc3nc4c(-c5nccs5)nccn4n3)ccc2OC1(F)F` [Example C6, 2,2-Difluoro-6-(8-thiazol-2-yl-[1,2,4]triazolo[1,5-a]pyrazin-2-ylamino)-4H-benzo[1,4]oxazin-3-one], the pIC50 in data set [2], in data set [4], in data set [6] and in data set [7] was 4.30 to 5.52 throughout.
Regarding `COc1cc(Nc2ncc(F)c(Nc3ccc4c(n3)NC(=O)C(C)(C)O4)n2)cc(OC)c1OC` [Example R406], in data set [8] (orally available Syk inhibitor), the clinical scores result is “significant improvement of clinical scores”. Besides, the “serum cytokine concentrations and bone erosion” value in data set [8] is “significantly reduced serum cytokine concentrations, as well as bone erosion”. Further, in [9], the “efficacy (ACR scores)” value is reported as “efficacy (ACR scores improvement)” and the tolerability result was “good tolerability”.
Regarding `c1ccc(Nc2nc3c(-c4nccs4)nccn3n2)cc1` [Example C14, Phenyl-(8-thiazol-2-yl-[1,2,4]triazolo[1,5-a]pyrazin-2-yl)-amine], the pIC50 in data set [2], in data set [3], in data set [4], in data set [6] and in [7] was 4.30 to 5.52 in each case.
